Tests used:
ALOMY [1] = assay: Pre-emergence herbicidal action against ALOMY; format: in vivo, Alopecurus myosuroides; settings: Alopecurus myosuroides, 504 h, pre-emergence; for pest or weed control at 80 g/ha: scored visually after 3 weeks vs untreated controls (100% = plants have died, 0% = like control plants); for pest or weed control at 320 g/ha: scored visually after 3 weeks, 100% = plants have died, 0% = like control plants
How it was run: (§1)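 Herbicidal effect was assessed 3 weeks after treatment by visual comparison with untreated controls, 100% denoting dead plants. Aqueous WP or EC preparations had been applied at 600 to 800 l/ha with 0.2% wetting agent to the soil covering freshly sown seeds.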

AMARE [2] = assay: Pre-emergence herbicidal action against AMARE; format: in vivo, Amaranthus retroflexus; settings: Amaranthus retroflexus, 504 h, 100% = plants have died, 0% = like control plants; for pest or weed control at 20 g/ha / pest or weed control at 80 g/ha: scored visually after 3 weeks vs untreated controls; for pest or weed control at 320 g/ha: scored visually after 3 weeks
How it was run: as §1

AVEFA [3] = assay: Pre-emergence herbicidal action against AVEFA; format: in vivo, Avena fatua; settings: Avena fatua, 504 h, pre-emergence
How it was run: as §1

ECHCG [4] = assay: Pre-emergence herbicidal action against ECHCG; format: in vivo, Echinochloa crus-galli; settings: Echinochloa crus-galli, 504 h
How it was run: as §1

HORMU [5] = assay: Pre-emergence herbicidal action against HORMU; format: in vivo, Hordeum murinum; settings: for pest or weed control at 80 g/ha / pest or weed control at 320 g/ha: Hordeum murinum, 504 h, pre-emergence
How it was run: as §1

MATIN [6] = assay: Pre-emergence herbicidal action against MATIN; format: in vivo, Matricaria inodora; settings: Tripleurospermum inodorum, 504 h; for pest or weed control at 80 g/ha: dosage 80 g/ha; for pest or weed control at 320 g/ha: dosage 320 g/ha
How it was run: as §1

POLCO = assay: Pre-emergence herbicidal action against POLCO; format: in vivo, Polygonum convolvulus; settings: Fallopia convolvulus, 504 h; for pest or weed control at 320 g/ha: dosage 320 g/ha
How it was run: as §1

SETVI [7] = assay: Pre-emergence herbicidal action against SETVI; format: in vivo, Setaria viridis; settings: Setaria viridis, 504 h; for pest or weed control at 320 g/ha: dosage 320 g/ha
How it was run: as §1

STEME [8] = assay: Pre-emergence herbicidal action against STEME; format: in vivo, Stellaria media; settings: Stellaria media, 504 h; for pest or weed control at 80 g/ha: dosage 80 g/ha; for pest or weed control at 320 g/ha: dosage 320 g/ha
How it was run: as §1

VERPE [9] = assay: Pre-emergence herbicidal action against VERPE; format: in vivo, Veronica persica; settings: Veronica persica, 504 h; for pest or weed control at 80 g/ha: dosage 80 g/ha; for pest or weed control at 320 g/ha: dosage 320 g/ha
How it was run: as §1

VIOTR [10] = assay: Pre-emergence herbicidal action against VIOTR; format: in vivo, Viola tricolor; settings: Viola tricolor, 504 h; for pest or weed control at 80 g/ha: dosage 80 g/ha; for pest or weed control at 320 g/ha: dosage 320 g/ha
How it was run: as §1

ALOMY [11] = assay: Post-emergence herbicidal action against ALOMY; format: in vivo, Alopecurus myosuroides; settings: Alopecurus myosuroides, 504 h, dosage 80 g/ha, visual assessment about 3 weeks after treatment vs untreated controls
How it was run: (§2)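 Herbicidal effect was scored visually in percent after about 3 weeks in the greenhouse. Plants had been raised in sandy loam and treated post-emergence at the one-leaf stage with formulated compound at 600 to 800 l/ha water plus 0.2% wetting agent.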

AMARE [12] = assay: Post-emergence herbicidal action against AMARE; format: in vivo, Amaranthus retroflexus; settings: Amaranthus retroflexus, 504 h, visual assessment about 3 weeks after treatment, 100% = plants have died, 0% = like control plants
How it was run: as §2

AVEFA [13] = assay: Post-emergence herbicidal action against AVEFA; format: in vivo, Avena fatua; settings: Avena fatua, 504 h, 80 g/ha, visual assessment about 3 weeks after treatment, 100% = plants have died, 0% = like control plants
How it was run: as §2

ECHCG [14] = assay: Post-emergence herbicidal action against ECHCG; format: in vivo, Echinochloa crus-galli; settings: Echinochloa crus-galli, 504 h, dosage 80 g/ha
How it was run: as §2

STEME [15] = assay: Post-emergence herbicidal action against STEME; format: in vivo, Stellaria media; settings: Stellaria media, 504 h
How it was run: as §2

VERPE [16] = assay: Post-emergence herbicidal action against VERPE; format: in vivo, Veronica persica; settings: Veronica persica, 504 h
How it was run: as §2

VIOTR [17] = assay: Post-emergence herbicidal action against VIOTR; format: in vivo, Viola tricolor; settings: Viola tricolor, 504 h
How it was run: as §2

HORMU [18] = assay: Post-emergence herbicidal action against HORMU; format: in vivo, Hordeum murinum; settings: Hordeum murinum, 504 h, dosage 80 g/ha
How it was run: as §2

MATIN [19] = assay: Post-emergence herbicidal action against MATIN; format: in vivo, Matricaria inodora; settings: Tripleurospermum inodorum, 504 h, dosage 80 g/ha
How it was run: as §2

SETVI [20] = assay: Post-emergence herbicidal action against SETVI; format: in vivo, Setaria viridis; settings: Setaria viridis, 504 h, dosage 80 g/ha
How it was run: as §2

[21] = 20 g/ha, scored visually after 3 weeks, 100% = plants have died, 0% = like control plants
[22] = scored visually after 3 weeks, 100% = plants have died, 0% = like control plants

SMILES: CCn1nnnc1NC(=O)c1ccc(C(F)(F)F)c(C(=O)NC(C)=O)c1Cl [Example 2-337]
- pest or weed control at 80 g/ha (ALOMY [1]): 90%
- pest or weed control at 320 g/ha (ALOMY [1]): 100%
- pest or weed control at 20 g/ha (AMARE [2]): 90%
- pest or weed control at 80 g/ha (AMARE [2]): 100%
- pest or weed control at 320 g/ha (AMARE [2]): 100%
- pest or weed control at 80 g/ha (AVEFA [3]): 100%
- pest or weed control at 20 g/ha (AVEFA [3]; [21]): 90%
- pest or weed control at 320 g/ha (AVEFA [3]; [22]): 100%
- pest or weed control at 20 g/ha (ECHCG [4]; 20 g/ha): 80%
- pest or weed control at 80 g/ha (ECHCG [4]; 80 g/ha): 100%
- pest or weed control at 320 g/ha (ECHCG [4]): 100%
- Pre-emergence action against HORMU (HORMU [5]; [21]): 90%
- pest or weed control at 80 g/ha (HORMU [5]): 90%
- pest or weed control at 320 g/ha (HORMU [5]): 100%
- pest or weed control at 20 g/ha (MATIN [6]; dosage 20 g/ha): 80%
- pest or weed control at 80 g/ha (MATIN [6]): 100%
- pest or weed control at 320 g/ha (MATIN [6]): 100%
- pest or weed control at 320 g/ha (POLCO): 80%
- pest or weed control at 20 g/ha (SETVI [7]; dosage 20 g/ha): 90%
- pest or weed control at 80 g/ha (SETVI [7]; dosage 80 g/ha): 100%
- pest or weed control at 320 g/ha (SETVI [7]): 100%
- pest or weed control at 20 g/ha (STEME [8]; dosage 20 g/ha): 90%
- pest or weed control at 80 g/ha (STEME [8]): 90%
- pest or weed control at 320 g/ha (STEME [8]): 100%
- pest or weed control at 20 g/ha (VERPE [9]; dosage 20 g/ha): 80%
- pest or weed control at 80 g/ha (VERPE [9]): 90%
- pest or weed control at 320 g/ha (VERPE [9]): 90%
- pest or weed control at 20 g/ha (VIOTR [10]; dosage 20 g/ha): 90%
- pest or weed control at 80 g/ha (VIOTR [10]): 100%
- pest or weed control at 320 g/ha (VIOTR [10]): 100%
- pest or weed control at 80 g/ha (ALOMY [11]): 90%
- pest or weed control at 20 g/ha (AMARE [12]): 100%
- pest or weed control at 80 g/ha (AMARE [12]): 100%
- pest or weed control at 80 g/ha (AVEFA [13]): 90%
- pest or weed control at 80 g/ha (ECHCG [14]): 90%
- pest or weed control at 20 g/ha (STEME [15]): 90%
- pest or weed control at 80 g/ha (STEME [15]): 90%
- pest or weed control at 5 g/ha (VERPE [16]; 5 g/ha): 80%
- pest or weed control at 20 g/ha (VERPE [16]): 100%
- pest or weed control at 80 g/ha (VERPE [16]): 100%
- pest or weed control at 80 g/ha (VIOTR [17]): 90%

SMILES: CCCn1nnnc1NC(=O)c1ccc(C(F)(F)F)c(C(N)=O)c1Cl [Example 3-338]
- pest or weed control at 80 g/ha (ALOMY [1]): 80%
- pest or weed control at 320 g/ha (ALOMY [1]): 100%
- pest or weed control at 20 g/ha (AMARE [2]): 80%
- pest or weed control at 80 g/ha (AMARE [2]): 100%
- pest or weed control at 320 g/ha (AMARE [2]): 100%
- pest or weed control at 80 g/ha (AVEFA [3]): 90%
- pest or weed control at 320 g/ha (AVEFA [3]; [22]): 100%
- pest or weed control at 320 g/ha (ECHCG [4]): 100%
- pest or weed control at 80 g/ha (HORMU [5]): 80%
- pest or weed control at 320 g/ha (HORMU [5]): 100%
- pest or weed control at 80 g/ha (MATIN [6]): 90%
- pest or weed control at 320 g/ha (MATIN [6]): 100%
- pest or weed control at 80 g/ha (POLCO; dosage 80 g/ha): 80%
- pest or weed control at 320 g/ha (POLCO): 80%
- pest or weed control at 320 g/ha (SETVI [7]): 100%
- pest or weed control at 80 g/ha (STEME [8]): 90%
- pest or weed control at 320 g/ha (STEME [8]): 100%
- pest or weed control at 80 g/ha (VERPE [9]): 90%
- pest or weed control at 320 g/ha (VERPE [9]): 100%
- pest or weed control at 80 g/ha (VIOTR [10]): 90%
- pest or weed control at 320 g/ha (VIOTR [10]): 100%
- pest or weed control at 80 g/ha (ALOMY [11]): 100%
- pest or weed control at 20 g/ha (AMARE [12]): 90%
- pest or weed control at 80 g/ha (AMARE [12]): 100%
- pest or weed control at 80 g/ha (AVEFA [13]): 100%
- pest or weed control at 80 g/ha (ECHCG [14]): 80%
- pest or weed control at 80 g/ha (HORMU [18]): 100%
- pest or weed control at 80 g/ha (MATIN [19]): 80%
- pest or weed control at 80 g/ha (SETVI [20]): 90%
- pest or weed control at 20 g/ha (STEME [15]): 100%
- pest or weed control at 80 g/ha (STEME [15]): 100%
- pest or weed control at 5 g/ha (STEME [15]; dosage 5 g/ha): 80%
- pest or weed control at 20 g/ha (VERPE [16]): 90%
- pest or weed control at 80 g/ha (VERPE [16]): 90%
- pest or weed control at 20 g/ha (VIOTR [17]; 20 g/ha): 90%
- pest or weed control at 80 g/ha (VIOTR [17]): 100%

Reference: patent US12655116B2, “Substituted isophthalic acid diamides” (Bayer Aktiengesellschaft, priority 2020, dated 2026)
